Results on one compound are retold here after patent US11517532B2, “Methods of treating hepatitis delta virus infection” (Eiger BioPharmaceuticals, Inc., priority 2015, dated 2022).

Read-outs that look alike come from different tables or passages of the source.

The conditions of data set [1]: cited from earlier work.
For data set [2] the following is noted: formulated in crystalline forms, animals; cited from earlier work.
Data set [3] can be described thus: Lonafarnib serum concentration in HDV patients, Example 3. It is filed as in vivo, human. As to conditions: for LNF Serum Concentration at Week 6 / concentration at 6 weeks: oral; for LNF Serum Concentration at Week 6: listed as LNF; for concentration at 6 weeks: human, serum, po, read-out: LNF Serum Concentration at Week 6. The method, then: Serum levels of lonafarnib can be measured using art-known methods. As used herein, a serum lonafarnib level or concentration can be measured from a serum sample obtained from a subject periodically (such as weekly, biweekly, monthly or according to other schedules) and the levels during intervening periods can be extrapolated. For example, if a measurement of 4,000 ng/ml is obtained at 4 weeks and a measurement of 6,000 ng/ml is obtained at 6 weeks, for purposes of this analysis it is concluded that the serum level during the intervening two weeks ranged between 4,000 and 6,000 ng/ml. In some embodiments the first measurement is made no earlier than one week after the initiation of oral therapy.
This example describes the anti-HDV effect of combination therapy with separately formulated lonafarnib and ritonavir at several combinations of dosages. Eight patients with chronic HDV infection were divided into four groups and treated with different dose combinations of separately formulated lonafarnib and ritonavir (orally administered) for 42 days under the regimens summarized in Table 10. The patients were followed for an additional period of time after discontinuation of therapy.

Setting [4] is: Group 2 (Patients 3-4): lonafarnib 100 mg BID + ritonavir 50 mg QD.
Setting [5] is: Group 3 (Patients 5-6): lonafarnib 100 mg QD + ritonavir 100 mg QD.
Setting [6] is: Group 4 (Patients 7-8): lonafarnib 150 mg QD + ritonavir 100 mg QD.

As to `NC(=O)N1CCC(CC(=O)N2CCC([C@H]3c4ncc(Br)cc4CCc4cc(Cl)cc(Br)c43)CC2)CC1` [lonafarnib], in data set [1] (by pH), the stability in solution entry is recorded as “stable at neutral pH but will hydrolyze in acidic or basic conditions”. The water solubility result in data set [1] is given as “poorly water soluble”. Besides, the bioavailability result in data set [2] is “low and variable”. For the same compound, the “LNF Serum Concentration at Week 6” value in data set [3] (setting [4]) turned out to be 3044 ng/mL; in data set [3] (setting [5]), 1640 ng/mL; in data set [3] (setting [6]) it was 1830 ng/mL. The “lonafarnib serum levels (FIG. 6)” value in data set [3] (Patient 8, reduced correlation with HDV viral load) is ~2,000 ng/mL. In addition, in data set [3] (QD dosing of ritonavir), the LNF serum concentrations was in the range of 2500 to 3500 ng/mL. Further, the results for the concentration at 6 weeks in data set [3] (setting [4]), in data set [3] (setting [5]) and in data set [3] (setting [6]) were 4020 ng/mL, 2340 ng/mL and 1840 ng/mL, respectively. Also, the “lonafarnib serum levels (FIG. 5)” value in data set [3] (one patient, 100 mg BID lonafarnib + 100 mg QD ritonavir, inverse correlation with HDV viral load) is reported as ~5,000 ng/mL.
